# Measurements reported in PubChem BioAssay (NCI).
#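 GI50 marks 50% less growth. At the TGI there is no net growth.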
# Columns and labels:
# Experiment in all cases: growth of human tumour cells (NCI), 384-well format
# NCI-H522 lung = tested on: NCI-H522 lung
# UACC-62 melanoma = tested on: UACC-62 melanoma
# M14 melanoma = tested on: M14 melanoma
# UO-31 renal = tested on: UO-31 renal
# SK-MEL-5 melanoma = tested on: SK-MEL-5 melanoma
# SR leukemia = tested on: SR leukemia
# MDA-MB-468 breast = tested on: MDA-MB-468 breast
# KM12 colon = tested on: KM12 colon
# NCI-H23 lung = tested on: NCI-H23 lung
# SF-539 CNS = tested on: SF-539 CNS
# BT-549 breast = tested on: BT-549 breast
# MCF7 breast = tested on: MCF7 breast
# SNB-19 CNS = tested on: SNB-19 CNS
# SK-MEL-2 melanoma = tested on: SK-MEL-2 melanoma
# EKVX NSCLC = tested on: EKVX NSCLC
# OVCAR-4 ovarian = tested on: OVCAR-4 ovarian
# CAKI-1 renal = tested on: CAKI-1 renal
# LOX IMVI melanoma = tested on: LOX IMVI melanoma
# 786-0 renal = tested on: 786-0 renal
# OVCAR-8 ovarian = tested on: OVCAR-8 ovarian
# CCRF-CEM leukemia = tested on: CCRF-CEM leukemia
# SF-295 CNS = tested on: SF-295 CNS
# TK-10 renal = tested on: TK-10 renal
# DU-145 prostate = tested on: DU-145 prostate
# HCT-15 colon = tested on: HCT-15 colon
# T-47D breast = tested on: T-47D breast
# NCI-H226 lung = tested on: NCI-H226 lung
# OVCAR-5 ovarian = tested on: OVCAR-5 ovarian
# A549 NSCLC = tested on: A549 NSCLC
# COLO 205 colon = tested on: COLO 205 colon
# SK-MEL-28 melanoma = tested on: SK-MEL-28 melanoma
# HOP-92 NSCLC = tested on: HOP-92 NSCLC
# SNB-75 CNS = tested on: SNB-75 CNS
# SN12C renal = tested on: SN12C renal
# MOLT-4 leukemia = tested on: MOLT-4 leukemia
# HS 578T breast = tested on: HS 578T breast
# HT29 colon = tested on: HT29 colon
# NCI-H322M lung = tested on: NCI-H322M lung
# PC-3 prostate = tested on: PC-3 prostate
# IGROV1 ovarian = tested on: IGROV1 ovarian
# HCC-2998 colon = tested on: HCC-2998 colon
# SK-OV-3 ovarian = tested on: SK-OV-3 ovarian
# U251 glioblastoma = tested on: U251 glioblastoma
# RPMI-8226 leukemia = tested on: RPMI-8226 leukemia
# NCI-H460 NSCLC = tested on: NCI-H460 NSCLC
# MDA-MB-231 breast = tested on: MDA-MB-231 breast
# NCI/ADR-RES ovarian = tested on: NCI/ADR-RES ovarian
structure (smiles),measurement,setting,value
Nc1nc2cc(-c3ccc4ncc(C(=O)N5CCOCC5)n4c3)ccc2o1,GI50,NCI-H522 lung,4.05 µM
same,TGI,NCI-H522 lung,> 74.5 µM
same,GI50,UACC-62 melanoma,66.4 µM
same,TGI,UACC-62 melanoma,> 100 µM
same,GI50,M14 melanoma,11.6 µM
same,TGI,M14 melanoma,> 100 µM
same,GI50,UO-31 renal,8.62 µM
same,TGI,UO-31 renal,> 100 µM
same,GI50,SK-MEL-5 melanoma,5.97 µM
same,TGI,SK-MEL-5 melanoma,> 59.6 µM
same,GI50,SR leukemia,12.2 µM
same,TGI,SR leukemia,> 100 µM
same,GI50,MDA-MB-468 breast,3.93 µM
same,TGI,MDA-MB-468 breast,> 92.3 µM
same,GI50,KM12 colon,28.7 µM
same,TGI,KM12 colon,> 100 µM
same,GI50,NCI-H23 lung,5.59 µM
same,TGI,NCI-H23 lung,> 100 µM
same,GI50,SF-539 CNS,> 60.9 µM
same,TGI,SF-539 CNS,> 100 µM
same,GI50,BT-549 breast,23.7 µM
same,TGI,BT-549 breast,> 100 µM
same,GI50,MCF7 breast,1.45 µM
same,TGI,MCF7 breast,> 100 µM
same,GI50,SNB-19 CNS,> 73.8 µM
same,TGI,SNB-19 CNS,> 100 µM
same,GI50,SK-MEL-2 melanoma,30 µM
same,TGI,SK-MEL-2 melanoma,> 100 µM
same,GI50,EKVX NSCLC,5.01 µM
same,TGI,EKVX NSCLC,> 100 µM
same,GI50,OVCAR-4 ovarian,> 40.7 µM
same,TGI,OVCAR-4 ovarian,> 100 µM
same,GI50,CAKI-1 renal,6.74 µM
same,TGI,CAKI-1 renal,> 100 µM
same,GI50,LOX IMVI melanoma,19.5 µM
same,TGI,LOX IMVI melanoma,> 100 µM
same,GI50,786-0 renal,> 75.6 µM
same,TGI,786-0 renal,> 100 µM
same,GI50,OVCAR-8 ovarian,> 78.2 µM
same,TGI,OVCAR-8 ovarian,> 100 µM
same,GI50,CCRF-CEM leukemia,7.44 µM
same,TGI,CCRF-CEM leukemia,> 100 µM
same,TGI,SF-295 CNS,> 95.1 µM
same,GI50,TK-10 renal,5.17 µM
same,TGI,TK-10 renal,53.7 µM
same,GI50,DU-145 prostate,21.3 µM
same,TGI,DU-145 prostate,> 100 µM
same,GI50,HCT-15 colon,6.21 µM
same,TGI,HCT-15 colon,> 100 µM
same,GI50,T-47D breast,0.574 µM
same,TGI,T-47D breast,3.14 µM
same,GI50,NCI-H226 lung,> 40.4 µM
same,TGI,NCI-H226 lung,> 100 µM
same,GI50,OVCAR-5 ovarian,7.68 µM
same,TGI,OVCAR-5 ovarian,> 100 µM
same,GI50,A549 NSCLC,9.11 µM
same,TGI,A549 NSCLC,> 100 µM
same,GI50,COLO 205 colon,10.2 µM
same,TGI,COLO 205 colon,> 100 µM
same,GI50,SK-MEL-28 melanoma,> 57.6 µM
same,TGI,SK-MEL-28 melanoma,> 100 µM
same,GI50,HOP-92 NSCLC,2.2 µM
same,TGI,HOP-92 NSCLC,18.5 µM
same,GI50,SNB-75 CNS,10.2 µM
same,TGI,SNB-75 CNS,> 75 µM
same,GI50,SN12C renal,7.67 µM
same,TGI,SN12C renal,> 100 µM
same,GI50,MOLT-4 leukemia,3.45 µM
same,TGI,MOLT-4 leukemia,19.9 µM
same,GI50,HS 578T breast,6.07 µM
same,TGI,HS 578T breast,66.2 µM
same,GI50,HT29 colon,8.1 µM
same,TGI,HT29 colon,> 100 µM
same,GI50,NCI-H322M lung,6.17 µM
same,TGI,NCI-H322M lung,> 100 µM
same,GI50,PC-3 prostate,5.45 µM
same,TGI,PC-3 prostate,> 100 µM
same,GI50,IGROV1 ovarian,1.85 µM
same,TGI,IGROV1 ovarian,5.23 µM
same,GI50,HCC-2998 colon,12.4 µM
same,TGI,HCC-2998 colon,> 100 µM
same,GI50,SK-OV-3 ovarian,2.09 µM
same,TGI,SK-OV-3 ovarian,12.3 µM
same,GI50,U251 glioblastoma,> 74.7 µM
same,TGI,U251 glioblastoma,> 100 µM
same,GI50,RPMI-8226 leukemia,1.58 µM
same,TGI,RPMI-8226 leukemia,4.55 µM
same,GI50,NCI-H460 NSCLC,2.77 µM
same,TGI,NCI-H460 NSCLC,> 100 µM
same,GI50,MDA-MB-231 breast,9.02 µM
same,TGI,MDA-MB-231 breast,> 100 µM
same,GI50,NCI/ADR-RES ovarian,> 100 µM
same,TGI,NCI/ADR-RES ovarian,> 100 µM
